In paper PMC12598698, “Synergistic Cancer Metabolic Therapy via Co-Delivery of 3‑Bromopyruvate and Temozolomide with a Supramolecular Shuttle” (ACS Applied Materials & Interfaces, 2025):
Values joined by “and” are separate entries in the source; they are usually repeats but may differ in a detail not shown here. Equal values may be shown once.

Key:
[1] = test system: mitochondria isolated from rat brain; test: EPR analysis of ROS production upon mitochondria respiration (Mito-TEMPO); assay type: biochemical; settings: succinate without rotenone, 37 °C, 8 min preincubation
Procedure: Investigation of the redox status in mitochondria was performed using the Mito-TEMPO paramagnetic spin probe, which is a mitochondria-penetrating nitroxide radical that allows evaluation of the level of ROS (mainly superoxides) produced during respiration. The same protocol as described in the previous subsection was followed with the addition of Mito-TEMPO (0.1 mM) during the preincubation with BrP, NF, or NF-Br. In this case succinate was used as a respiratory substrate in the absence of rotenone in order to allow the formation of ROS via the electron reverse from complex II to complex I. At predetermined time intervals, 20 μL of each sample was loaded into glass capillaries and flame-sealed. To guarantee thermal stability, the sealed capillaries were subsequently placed inside a standard 4 mm quartz EPR-sample tube that had been lightly lubricated with silicone oil. As described in a previous subsection, a 9 GHz Bruker Elexsys E500 spectrometer was used to record the EPR spectra. During acquisition, the sample temperature was maintained at 37 °C by directing thermostated nitrogen gas through a quartz dewar. Mito-TEMPO EPR signals were analyzed by double integration using the Bruker software package.

[2] = test system: mitochondria isolated from rat brain; test: Mitochondrial respiration (Clark-type electrode); assay type: biochemical; settings: 5 μM, 8 min preincubation, 37 °C, ADP 300 μM
Procedure: Male Wistar rats (275–300 g) were obtained from Envigo RMS Srl (Udine, Italy). Animals were housed in a temperature-controlled environment (22 °C) under a 12:12 h light–dark cycle, with food and water available ad libitum. All procedures were conducted in strict accordance with European guidelines for the care and use of laboratory animals. Every attempt was made to reduce the suffering and discomfort experienced by the animals. Experimental protocols were approved by the Committee on the Ethics of Animal Experiments of the University of Naples Federico II (Italy) and the Italian Minister of Health (protocol number 776/2021-Pr). Rats were anesthetized by ip injection of tiopental (40 mg/100 body weight) and euthanized by decapitation. Brains were immediately excised, weighed, and processed for mitochondrial isolation, following the method described by Sumbalova et al. Briefly, brain tissues were immersed in ice-cold isolation buffer (330 mM sucrose, 10 mM Tris-HCl, 1 mM EDTA, and 2.5 g/L fatty acid-free BSA, pH 7.4) and homogenized using a Potter-Elvehjem homogenizer. […] Mitochondrial respiration rate was measured polarographically using a Clark-type electrode (Clark-type electrode, Oxygraph system, Hansatech Instruments Ltd., UK). […]

[3] = test system: U-87 MG cells (2D); test: 2D U-87 cell viability assay (PrestoBlue); assay type: cell-based, human
Procedure: Cells were seeded in 48-well plates at approximately 3 × 10^4 cells per well in DMEM culture medium supplemented with 10% FBS. U-87 MG cell lines from human brain were initially cultured in 25 cm^2 flasks, using DMEM supplemented with FBS 10%, P/S 2%, and L/GLUT 2 mM, in a humidified incubator (37 °C/5% CO2). After 24 h, once cells adhered, they were treated in parallel with NF-BrP (BrP, 5 μM), NF-BrP-TMZ (BrP and TMZ, 5 μM), and BrP at concentrations of 30, 50, 100, and 150 μM, for 24, 48, and 72 h. Untreated cells served as the controls. All experiments were performed under standard cell culture conditions (95% relative humidity, 5% CO2, 37 °C). At the end of each incubation time, cell viability was assessed using the PrestoBlue assay (ThermoFisher Scientific), according to the manufacturer’s protocol. Cells were incubated with the reagent for 1 h, and absorbance was obtained at 570 nm with 600 nm as the reference wavelength with a BioTek Synergy HT microplate reader. Results are expressed as the percentage of viable cells relative to the untreated controls.

[4] = test system: U-87 MG cells (2D); settings: highest tested concentration 250 μM, 72 h; ref previous work; cited from earlier work
Procedure: Combining drugs with different mechanisms of action targeting distinct cellular pathways can help overcome resistance and produce a synergistic effect, thereby enhancing the overall anticancer efficacy. The combined cytotoxic effect of the nanofiber NF-TMZ-BrP, cofunctionalized with BrP and TMZ (both at 5 μM), was evaluated in 2D and 3D-U87 cells at 24, 48, and 72 h. […] After 72 h, the cytotoxic effect became more pronounced, with appro ...

O=C(O)C(=O)CBr [BrP, 3-bromopyruvic acid]
effect on mitochondrial ROS production (slope of mito-TEMPO decay) [1]: reduces the slope in a dose-dependent manner | inhibition of ADP-stimulated respiration, pyruvate + malate [2]: about 50% | inhibition of ADP-stimulated respiration, succinate + rotenone [2]: about 50% | reduction of U-87 cell viability by free BrP at 150 μM ([3]; free drug 150 μM, prolonged exposure): no more than 20% | concentrations at which a decrease in U-87 cell viability is observed ([3]; free drug, 24, 48 and 72 h): 50 to 150 µM and > 50 µM

Cn1nnc2c(C(N)=O)ncn2c1=O [TMZ, temozolomide]
reduction in cell viability by free TMZ [4]: 40%
